The text below walks through data of patent publication US20110190135A1, “SYNERGISTIC HERBICIDAL COMPOSITION CONTAINING PENOXSULAM AND BUTACHLOR” (DOW AGROSCIENCES LLC, priority 2010, published 2011).

One assay has as its system MOOVA - pickerel weed. The assay is described as follows: Weed control in transplanted rice, Field trial #2. Particulars: 28 days after application. The class given is in vivo, Monochoria vaginalis. The procedure:
(§1) Field trials were conducted in rice using standard herbicide small plot research methodology. Plot size was 2 m^2 using 1.6 m diameter rings placed into the paddy soil with capability for flooding with water to represent flooded rice culture. There were 3 replicates per treatment. Rice was Japonica type that was sown in rice nursery boxes as per normal cultural practices, and then transplanted 30 days after sowing into flooded rings. The rice crop was grown using normal cultural practices for fertilization, seeding, watering, flooding and maintenance to ensure good growth of the crop and the weeds under seeded rice conditions in Taiwan. Ring plot water depth was maintained at 3 to 7 cm depth after transplanting. Just prior to treatment application, plot water was drained to maintain saturated soil in ring plot. Treatments were applied by hand and water was re-induced to 3 to 7 cm depth 24 hours after application. All treatments in the field trials were applied by mixing the treatments with soil just prior to application by hand into the ring plots at 5 to 7 days after transplanting. Commercially available products of penoxsulam and butachlor were mixed in water and sprayed onto 45 grams of soil, which is equivalent to the area treated at an application rate of 225 kg soil/ha. […]

The next assay has as its system ISCRU - winklegrass. The experiment in a line: Weed control in transplanted rice, Field trial #3. In kind it is in vivo, Ischaemum rugosum. Particulars: 42 days after application. The procedure: as §1
Assay [1] concerns ECHCG - barnyard grass. The assay is described as follows: Weed control in transplanted rice, Field trial #2. The class given is in vivo, Ehinochloa crus-galli. Particulars: 28 days after application. The procedure:
Field trials were conducted in rice using standard herbicide small plot research methodology. Plot size was 2 m^2 using 1.6 m diameter rings placed into the paddy soil with capability for flooding with water to represent flooded rice culture. There were 3 replicates per treatment. Rice was Japonica type that was sown in rice nursery boxes as per normal cultural practices, and then transplanted 30 days after sowing into flooded rings. The rice crop was grown using normal cultural practices for fertilization, seeding, watering, flooding and maintenance to ensure good growth of the crop and the weeds under seeded rice conditions in Taiwan. Ring plot water depth was maintained at 3 to 7 cm depth after transplanting. Just prior to treatment application, plot water was drained to maintain saturated soil in ring plot. Treatments were applied by hand and water was re-induced to 3 to 7 cm depth 24 hours after application. All treatments in the field trials were applied by mixing the treatments with soil just prior to application by hand into the ring plots at 5 to 7 days after transplanting. Commercially available products of penoxsulam and butachlor were mixed in water and sprayed onto 45 grams of soil, which is equivalent to the area treated at an application rate of 225 kg soil/ha. For each 2 m^2 plot, 45 g soil was mixed with the appropriate formulated product amounts to treat 2 m^2 to achieve the desired application rates based on unit area of application (hectare). Treatments were rated as compared to the untreated control plots. Visual weed control was rated on a scale of 0 to 100 percent, where 0 corresponds to no injury and 100 corresponds to complete kill. The treated plots and control plots were rated blind at various intervals after application. Ratings were based of Percent (%) Visual weed control, where 0 corresponds to no injury and 100 corresponds to complete kill. Colby's equation was used to determine the herbicidal effects expected from the mixtures (Colby, S. R. Calculation of the synergistic and antagonistic response of herbicide combinations. Weeds 1967 15, 20-22). The following equation was used to calculate the expected activity of mixtures containing two active ingredients, A and B: Expected=A+B−(A×B/100) A=observed efficacy of active ingredient A at the same concentration as used in the mixture; B=observed efficacy of active ingredient B at the same concentration as used in the mixture.

Assay [2] deals with ECHCG - barnyard grass. The experiment in a line: Weed control in transplanted rice, Field trial #1. Particulars: 42 days after application. The class given is in vivo, Ehinochloa crus-galli. Here is the method: as §1

`COc1cnc(OC)n2nc(NS(=O)(=O)c3c(OCC(F)F)cccc3C(F)(F)F)nc12` [Penoxsulam]: the “MOOVA Obs - percent control observed” value with MOOVA - pickerel weed (Penoxsulam 3.8 grams ai/ha) amounted to 75%. Besides, the “ISCRU Obs - percent control observed” value in the assay with ISCRU - winklegrass (Penoxsulam 13 grams ai/ha) turned out to be 1%. Moreover, the “ECHCG Obs - percent control observed” value in the assay on ECHCG - barnyard grass [1] (Penoxsulam 3.8 grams ai/ha) was 0%; with ECHCG - barnyard grass [1] (Penoxsulam 7.5 grams ai/ha), 15%; with ECHCG - barnyard grass [1] (Penoxsulam 15 grams ai/ha), 88%; in the assay with ECHCG - barnyard grass [2] (Penoxsulam 30 grams ai/ha), 27%.
In the case of `CCCCOCN(C(=O)CCl)c1c(CC)cccc1CC` [Butachlor, N-butoxymethyl-2-chloro-2′,6′-diethylacetanilide], the “MOOVA Obs - percent control observed” value in the assay on MOOVA - pickerel weed (Butachlor 300 grams ai/ha) was determined as 26%. Besides, the “ISCRU Obs - percent control observed” value in the assay with ISCRU - winklegrass (Butachlor 300 grams ai/ha) is recorded as 23%. The “ECHCG Obs - percent control observed” value in the assay with ECHCG - barnyard grass [1] (Butachlor 300 grams ai/ha) was found to be 13%; with ECHCG - barnyard grass [2] (Butachlor 600 grams ai/ha), 0%.
